Experimental data published in PubChem BioAssay AID264 (DTP/NCI, 2004).
“And” between values parts separate entries of the source, which are not always exact repeats. Equal values may be shown once. Inconclusive results are not listed.

System: nude mice, LX-1 lung xenograft intrarenal, tumor weight T/C
Assay: NCI In Vivo Anticancer Drug Screen. Data for tumor model Human Lung LX-1 Xenograft (intrarenal inoculation) in NU/NU Swiss (nude) mice
Conditions: endpoint: mean tumor weight change, higher = larger tumour
Method: The antitumor activity of compounds was measured in mice bearing transplantable tumors. Survival or tumor size were measured and the results are expressed as the measurement made in the treated group (T) divided by the measurement made in the vehicle treated control group (C). The tumor model used in this assay is Human Lung LX-1 Xenograft (intrarenal inoculation) in NU/NU Swiss (nude) mice

[1] = dose: 12.5 mg/kg/injection, schedule: Q01DX010 (sc), vehicle: Klucel (hydroxypropylcellulose) (HPC)
[2] = dose: 25.0 mg/kg/injection, schedule: Q01DX010 (sc), vehicle: Klucel (hydroxypropylcellulose) (HPC)
[3] = dose: 37.5 mg/kg/injection, schedule: Q04DX003 (sc), vehicle: Klucel (hydroxypropylcellulose) (HPC)
[4] = dose: 75.0 mg/kg/injection, schedule: Q04DX003 (sc), vehicle: Klucel (hydroxypropylcellulose) (HPC)
[5] = dose: 150.0 mg/kg/injection, schedule: Q04DX003 (sc), vehicle: Klucel (hydroxypropylcellulose) (HPC)
[6] = dose: 300.0 mg/kg/injection, schedule: Q04DX003 (sc), vehicle: Klucel (hydroxypropylcellulose) (HPC)
[7] = dose: 25.0 mg/kg/injection, schedule: Q01DX010 (sc), vehicle: saline
[8] = dose: 50.0 mg/kg/injection, schedule: Q01DX010 (sc), vehicle: saline
[9] = dose: 100.0 mg/kg/injection, schedule: Q01DX010 (sc), vehicle: saline
[10] = dose: 200.0 mg/kg/injection, schedule: Q01DX010 (sc), vehicle: saline
[11] = dose: 600.0 mg/kg/injection, schedule: Q04DX003 (sc), vehicle: Klucel (hydroxypropylcellulose) (HPC)

SMILES: CCOC(=O)NC1=C(N2CC2)C(=O)C(NC(=O)OCC)=C(N2CC2)C1=O
- T/C (dose: 0.78 mg/kg/injection, schedule: Q01DX010 (sc), vehicle: saline): 67 % of control
- T/C (dose: 1.56 mg/kg/injection, schedule: Q01DX010 (sc), vehicle: saline): 74 % of control
- T/C (dose: 1.56 mg/kg/injection, schedule: Q01DX010 (sc), vehicle: suspension in saline): 56 % of control
- T/C (dose: 3.12 mg/kg/injection, schedule: Q04DX003 (sc), vehicle: suspension in saline): 77 % of control
- T/C (dose: 3.13 mg/kg/injection, schedule: Q01DX010 (sc), vehicle: saline): 81 % of control
- T/C (dose: 3.13 mg/kg/injection, schedule: Q01DX010 (sc), vehicle: suspension in saline): 89 % of control
- T/C (dose: 3.13 mg/kg/injection, schedule: Q04DX003 (ip), vehicle: saline): 64 % of control
- T/C (dose: 6.25 mg/kg/injection, schedule: Q01DX010 (sc), vehicle: saline): 35 % of control
- T/C (dose: 6.25 mg/kg/injection, schedule: Q04DX003 (ip), vehicle: saline): 96 % of control
- T/C (dose: 6.25 mg/kg/injection, schedule: Q04DX003 (sc), vehicle: saline): 75 % of control
- T/C (dose: 6.25 mg/kg/injection, schedule: Q04DX003 (sc), vehicle: suspension in saline): 65 % of control
- T/C (dose: 12.5 mg/kg/injection, schedule: Q04DX003 (ip), vehicle: saline): 34 % of control
- T/C (dose: 12.5 mg/kg/injection, schedule: Q04DX003 (sc), vehicle: saline): 71 % of control
- T/C (dose: 25.0 mg/kg/injection, schedule: Q04DX003 (ip), vehicle: saline): 9 % of control

SMILES: COc1ccc(C(N)=O)cc1N=NN(C)C
- T/C [1]: 9 % of control
- T/C [2]: 6 % of control and 15 % of control
- T/C [3]: 23 % of control
- T/C (dose: 50.0 mg/kg/injection, schedule: Q01DX010 (sc), vehicle: Klucel (hydroxypropylcellulose) (HPC)): -25 % of control
- T/C [4]: 13 % of control
- T/C [5]: 8 % of control
- T/C [6]: 8 % of control

SMILES: Cc1ccc2nc(-c3ccc4nc(-c5ccc(N=Nc6ccc(-c7nc8ccc(-c9nc%10ccc(C)c(S(=O)(=O)O)c%10s9)cc8s7)cc6)cc5)sc4c3)sc2c1S(=O)(=O)O
- T/C (dose: 100.0 mg/kg/injection, schedule: Q04DX003 (sc), vehicle: suspension in saline): 76 % of control
- T/C (dose: 400.0 mg/kg/injection, schedule: Q04DX003 (sc), vehicle: suspension in saline): 64 % of control
- T/C (dose: 800.0 mg/kg/injection, schedule: Q04DX003 (sc), vehicle: suspension in saline): 101 % of control

SMILES: O=C1C2(Cl)C3(Cl)C4(Cl)C(Cl)(Cl)C5(Cl)[C@]3(Cl)C1(Cl)[C@]5(Cl)C24Cl (some centres not stated)
- T/C [3]: 118 % of control
- T/C [4]: 95 % of control
- T/C [5]: 78 % of control

SMILES: S=c1[nH]cc2cnccn12
- T/C (dose: 300.0 mg/kg/injection, schedule: Q04DX003 (sc), vehicle: saline with Tween-80): 151 % of control
- T/C (dose: 1200.0 mg/kg/injection, schedule: Q04DX003 (sc), vehicle: saline with Tween-80): 83 % of control
- T/C (dose: 2400.0 mg/kg/injection, schedule: Q04DX003 (sc), vehicle: saline with Tween-80): 94 % of control

SMILES: C1CCC2[N-]CC3CCCCC3[N-]CC3CCCCC3[N-]CC3CCCCC3[N-]CC2C1.[Cu] (configuration not stated)
- T/C (dose: 6.25 mg/kg/injection, schedule: Q01DX010 (sc), vehicle: Klucel (hydroxypropylcellulose) (HPC)): 100 % of control
- T/C [1]: 87 % of control
- T/C [2]: 51 % of control

SMILES: O=c1cc(CCl)[nH]nc1CCl
- T/C (dose: 6.25 mg/kg/injection, schedule: Q01DX010 (sc), vehicle: saline with Tween-80): 92 % of control
- T/C (dose: 12.5 mg/kg/injection, schedule: Q01DX010 (sc), vehicle: saline with Tween-80): 55 % of control
- T/C (dose: 25.0 mg/kg/injection, schedule: Q01DX010 (sc), vehicle: saline with Tween-80): 49 % of control
- T/C (dose: 50.0 mg/kg/injection, schedule: Q01DX010 (sc), vehicle: saline with Tween-80): 106 % of control

SMILES: C=CS(=O)(=O)c1ccccc1
- T/C [7]: 57 % of control
- T/C [8]: 65 % of control
- T/C [9]: 29 % of control

SMILES: Nc1nc([Se])c2ncn(C3OC(CO)C(O)C3O)c2n1 (configuration not stated)
- T/C (dose: 1.0 mg/kg/injection, schedule: Q01DX010 (sc), vehicle: saline): 264 % of control
- T/C (dose: 2.0 mg/kg/injection, schedule: Q01DX010 (ip), vehicle: saline): 46 % of control
- T/C (dose: 4.0 mg/kg/injection, schedule: Q01DX010 (ip), vehicle: saline): 31 % of control
- T/C (dose: 6.66 mg/kg/injection, schedule: Q04DX003 (ip), vehicle: saline): 82 % of control
- T/C (dose: 6.66 mg/kg/injection, schedule: Q04DX003 (sc), vehicle: saline): 45 % of control
- T/C (dose: 8.0 mg/kg/injection, schedule: Q01DX010 (ip), vehicle: saline): 41 % of control
- T/C (dose: 13.33 mg/kg/injection, schedule: Q04DX003 (ip), vehicle: saline): 121 % of control
- T/C (dose: 13.33 mg/kg/injection, schedule: Q04DX003 (sc), vehicle: saline): 62 % of control
- T/C (dose: 16.0 mg/kg/injection, schedule: Q01DX010 (ip), vehicle: saline): 61 % of control
- T/C (dose: 16.0 mg/kg/injection, schedule: Q01DX010 (sc), vehicle: saline): 35 % of control
- T/C (dose: 26.65 mg/kg/injection, schedule: Q04DX003 (ip), vehicle: saline): 91 % of control
- T/C (dose: 26.65 mg/kg/injection, schedule: Q04DX003 (sc), vehicle: saline): 95 % of control
- T/C (dose: 53.3 mg/kg/injection, schedule: Q04DX003 (ip), vehicle: saline): 44 % of control

SMILES: CC(C)(C)N1CC1CNC(=O)C(=O)NCC1CN1C(C)(C)C (configuration not stated)
- T/C (dose: 6.25 mg/kg/injection, schedule: Q04DX003 (sc), vehicle: saline with Tween-80): 87 % of control
- T/C (dose: 12.5 mg/kg/injection, schedule: Q04DX003 (sc), vehicle: saline with Tween-80): 76 % of control
- T/C (dose: 25.0 mg/kg/injection, schedule: Q04DX003 (sc), vehicle: saline with Tween-80): 70 % of control

SMILES: [Cl][Pt+2][Cl].[NH-]C1CCC1.[NH2-]
- T/C (dose: 12.5 mg/kg/injection, schedule: Q04DX003 (sc), vehicle: suspension in saline): 57 % of control

SMILES: c1cc2n(n1)CCN2
- T/C [8]: 90 % of control and 233 % of control
- T/C [9]: 117 % of control and 124 % of control
- T/C [10]: 35 % of control
- T/C (dose: 333.33 mg/kg/injection, schedule: Q04DX003 (ip), vehicle: saline): 67 % of control

SMILES: Nc1nc(=O)n(C2OC(CO)C(O)C2O)cc1F (configuration not stated)
- T/C [5]: 74 % of control
- T/C [6]: 68 % of control
- T/C [11]: 84 % of control
- T/C (dose: 1200.0 mg/kg/injection, schedule: Q04DX003 (sc), vehicle: Klucel (hydroxypropylcellulose) (HPC)): 48 % of control

SMILES: C(CC1CO1)C1CO1 (configuration not stated)
- T/C [7]: 104 % of control
- T/C [8]: 64 % of control
- T/C [9]: 42 % of control

SMILES: O=c1[nH]cc(F)c(=O)[nH]1
- T/C (dose: 5.0 mg/kg/injection, schedule: Q01DX010 (sc), vehicle: saline): 107 % of control
- T/C (dose: 20.0 mg/kg/injection, schedule: Q01DX010 (sc), vehicle: saline): 56 % of control
- T/C (dose: 40.0 mg/kg/injection, schedule: Q01DX010 (sc), vehicle: saline): 25 % of control

SMILES: CC(C)CC(NC(=O)CF)C(=O)O (configuration not stated)
- T/C (dose: 5.0 mg/kg/injection, schedule: Q04DX003 (sc), vehicle: saline): 104 % of control
- T/C (dose: 10.0 mg/kg/injection, schedule: Q04DX003 (sc), vehicle: saline): 111 % of control
- T/C (dose: 20.0 mg/kg/injection, schedule: Q04DX003 (sc), vehicle: saline): 70 % of control

SMILES: COc1cc2cc3c4cc(OC)c(OC)cc4cc[n+]3c(C)c2cc1OC (tested in a mixture with another compound)
- T/C [8]: 118 % of control
- T/C [9]: 46 % of control

SMILES: CC1(C)OC(=O)N(CO)C1=O
- T/C [7]: 51 % of control
- T/C [9]: 116 % of control
- T/C [10]: 110 % of control

SMILES: Cc1cc(N2C(=O)CCSC2=S)ccc1Cl
- T/C [4]: 60 % of control
- T/C [5]: 111 % of control
- T/C [6]: 62 % of control
- T/C [11]: 75 % of control

SMILES: COc1cc2c(ccc3c4cc(OC)c(OC)cc4c[n+](C)c23)cc1O
- T/C (dose: 300.0 mg/kg/injection, schedule: Q04DX003 (sc), vehicle: saline): 107 % of control
- T/C (dose: 600.0 mg/kg/injection, schedule: Q04DX003 (sc), vehicle: saline): 79 % of control
- T/C (dose: 1200.0 mg/kg/injection, schedule: Q04DX003 (sc), vehicle: saline): 46 % of control
- T/C (dose: 2400.0 mg/kg/injection, schedule: Q04DX003 (sc), vehicle: saline): 65 % of control
